# Results reported in patent publication US20230304010A1, “COMPOSITIONS AND METHODS FOR TREATING VIRAL INFECTIONS” (priority 2020, published 2023).
# Values joined by “and” are separate entries in the source; they are usually repeats but may differ in a detail not shown here. Identical values can stand only once. Like-named read-outs stand apart in the source and are kept apart here. Ends that are not written are not given here.
# Tests used:
# Vero E6 cells = conditions: for Cell Viability (%): 0.5 µM
# SARS-CoV-2 [1] = test: microbe, parasite or virus in culture
# SARS-CoV-2 [2] = tested on: SARS-CoV-2
# [3] = target: ACE2:SARS-CoV-2 Spike interaction (UniProt P0DTC2+Q9BYF1); test: biochemical; format: binding
# SARS-CoV-2 [4] = tested on: SARS-CoV-2; remark: listed apart in the source
# [5] = Lung and liver toxicity studies after intratracheal instillation
# Procedure: Single dose of peptides or peptide/siRNA complexes were administrated via intratracheal instillation (200 μg) (Table 20). Saline solution was used as negative control. Samples were collected 12, 24, 48 and 72 hr post administration.
# The body weight of the mice were recorded before intratracheal instillation (day 0), at day1, day 2 and before being sacrificed (day 3). The lung, liver, heart, kidney and brain were collected at day 3 and organ index were determined.
# Bronchoalveolar lavage (BAL) were performed 2 days after instillation. The percentage of the cells, the total protein and level of LDH in the BAL were analyzed.
# AST and ALT levels in the plasma were assayed 2 days after instillation.
# [6] = In vivo lung biodistribution after intratracheal instillation (fluorescence imaging, confocal microscopy); conditions: administrated intratracheally
# Procedure: To monitor DIVC-6 siRNA biodistribution, the siRNA was labelled with Cy-5.5.
# In vivo lung biodistribution study was performed in healthy 4 weeks old male C57BL/6J mice. Single dose of peptides or peptide/siRNA complexes were administrated via intratracheal instillation (200 μg) (Table 20). The fluorescence was evaluated by non-invasive in vivo whole-body fluorescence imaging at T0, 1 h, 2 h, 6 h, 24 h, 48 h and 72 hr post injection. Fluorescence images were acquired with the IVIS kinetic system (PerkinElmer) (ex: 640±17 nm; em: 680±10 nm) and semi-quantitative data were obtained from the fluorescence images by using the Living image software (Caliper 2D).
# Further analysis of the lung distribution of the different compounds was performed by confocal microscopy. Lungs were collected at 4 hr, 24 hr and 72 hr post administration, fixed in formaldehyde 4% in Glucose 5%. Tissues were stained with Mito tracker red and nucleus with Hoesch.
# [7] = Nanoparticle formation of peptides with ADGN-106: mean size and polydispersity (Zetasizer); format: physicochemical; conditions: 25° C.; for Mean Size (nm): peptide/ADGN-106 complexes; for PI: polydispersity index of peptide/ADGN-106 complexes
# Source text: We then tested the ability of the different peptides to form nanoparticle organization in the presence of ADGN-106 or ADGN-100 peptide. […] Peptides were complexed with 5 or 10 molar excess of ADGN-106.
# [8] = target: SARS-CoV-2 Spike: ACE2 interaction (UniProt P0DTC2+Q9BYF1); test: biochemical; format: binding
# in vitro = conditions: uninfected Vero E6 cells
# SARS-CoV-2 ORF 3A gene = format: cell-based
# Vero-6 cells = test: Cellular toxicity of siRNA/ADGN-100 complexes on Vero-6 cells, CellTiter-Glo; conditions: uninfected Vero-6 cells
# SARS-CoV-2 [9] = test: siRNA/ADGN-100 complexes on SARS-CoV2 virus infection, Vero E6 cells; format: cell-based
# [10] = tested on: SARS-CoV-2 Nucleocapsid gene; format: cell-based
# SARS-CoV-2 ORF 8 gene = format: cell-based
# SARS-CoV-2 nucleocapside = format: cell-based; conditions: read-out: IC50 of silencing response
# [11] = read-out: SARS-COV2 IC50, original strain, second Table 19, siRNA complexed at molar ratio 1/20
# [12] = treatments added to Vero-E6 immediately prior to virus infection, Table 16
# [13] = read-out: IC50 against SARS-CoV2 virus infection
# [14] = siRNA complexed with ADGN-100 at molar ratio 1/20, added to Vero-E6 immediately prior to virus infection, read-out: IC50
# Chain of SARS-CoV-2 Spike: ACE2 interaction (Q9BYF1 18-740, one chain of several): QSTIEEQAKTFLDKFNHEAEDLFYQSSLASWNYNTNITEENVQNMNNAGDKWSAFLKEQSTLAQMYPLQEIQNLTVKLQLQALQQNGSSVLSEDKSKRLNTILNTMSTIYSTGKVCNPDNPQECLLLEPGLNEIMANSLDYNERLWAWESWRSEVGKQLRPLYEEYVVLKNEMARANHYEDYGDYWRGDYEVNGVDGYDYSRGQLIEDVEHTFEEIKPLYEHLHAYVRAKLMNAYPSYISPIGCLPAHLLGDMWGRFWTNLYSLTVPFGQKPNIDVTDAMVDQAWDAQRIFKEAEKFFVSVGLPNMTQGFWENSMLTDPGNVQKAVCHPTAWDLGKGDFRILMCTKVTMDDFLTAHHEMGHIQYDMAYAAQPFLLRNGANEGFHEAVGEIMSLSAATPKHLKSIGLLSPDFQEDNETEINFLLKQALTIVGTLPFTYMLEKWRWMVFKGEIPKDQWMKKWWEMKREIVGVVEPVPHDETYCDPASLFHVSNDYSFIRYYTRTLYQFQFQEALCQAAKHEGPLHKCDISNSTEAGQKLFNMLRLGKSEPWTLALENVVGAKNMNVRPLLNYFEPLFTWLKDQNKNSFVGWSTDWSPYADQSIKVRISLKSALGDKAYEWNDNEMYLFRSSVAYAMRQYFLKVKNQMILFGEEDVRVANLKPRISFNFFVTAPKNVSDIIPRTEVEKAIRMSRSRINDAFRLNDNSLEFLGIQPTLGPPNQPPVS
# Chain of ACE2:SARS-CoV-2 Spike interaction (Q9BYF1 18-740, one chain of several): as above
compound,measurement,setting,value
CCN(CCO)CCCC(C)Nc1ccnc2cc(Cl)ccc12 (centres unmarked) [Hydroxy chloroquine],TD50,Vero E6 cells; African green monkey,190 ± 28 µM
same,IC50,"SARS-CoV-2 [1]; Severe acute respiratory syndrome coronavirus 2, Vero C1008, read-out: IC50 against SARS-CoV2 virus infection",4400 ± 215 nM
same,IC50,"SARS-CoV-2 [1]; Severe acute respiratory syndrome coronavirus 2, Vero C1008, read-out: P-IC50 (nM)",4700 nM
same,IC50,"SARS-CoV-2 [1]; Severe acute respiratory syndrome coronavirus 2, Vero, read-out: D-IC50 (nM)",4400 ± 215 nM
CC(=O)N[C@@H](CCC(=O)O)C(=O)N[C@@H](CCC(N)=O)C(=O)N[C@@H](C)C(=O)N[C@@H](CCCCN)C(=O)N[C@H](C(=O)N[C@@H](Cc1ccccc1)C(=O)N[C@@H](CC(C)C)C(=O)N[C@@H](CC(=O)O)C(=O)N[C@@H](CCCCN)C(=O)N[C@@H](Cc1ccccc1)C(=O)N[C@@H](CC(N)=O)C(=O)N[C@@H](Cc1c[nH]cn1)C(=O)N[C@@H](CCC(=O)O)C(=O)N[C@@H](C)C(=O)N[C@@H](CCC(=O)O)C(=O)N[C@@H](CC(=O)O)C(=O)N[C@@H](CC(C)C)C(=O)N[C@@H](Cc1ccccc1)C(=O)NCCCCCC(=O)N[C@@H](CC(C)C)C(=O)N[C@@H](Cc1c[nH]c2ccccc12)C(=O)N[C@@H](CCCNC(=N)N)C(=O)N[C@@H](C)C(=O)N[C@@H](CC(C)C)C(=O)N[C@@H](Cc1c[nH]c2ccccc12)C(=O)N[C@@H](CCCNC(=N)N)C(=O)N[C@@H](CC(C)C)C(=O)N[C@@H](Cc1c[nH]c2ccccc12)C(=O)N[C@@H](CCCNC(=N)N)C(=O)N[C@@H](CO)C(=O)N[C@@H](CC(C)C)C(=O)N[C@@H](Cc1c[nH]c2ccccc12)C(=O)N[C@@H](CCCNC(=N)N)C(=O)N[C@@H](CC(C)C)C(=O)N[C@@H](CC(C)C)C(=O)N[C@@H](Cc1c[nH]c2ccccc12)C(=O)N[C@@H](CCCCN)C(N)=O)[C@@H](C)O [Seq33],IC50,SARS-CoV-2 [2]; [11],21.7 ± 8 nM
same,IC50,SARS-CoV-2 [2]; [12],22.9 ± 8 nM
same,IC50,"[3]; IC50, SARS-COV2",18.4 ± 11 nM
same,Residual Infection (%),SARS-CoV-2 [4],15%
same,fold stronger anti-SARS-CoV-2 activity than hydroxychloroquine sulfate,SARS-CoV-2 [4],250 fold
same,increase of potency by pre-incubation with SARS CoV-2 prior infection,SARS-CoV-2 [4],2 factor
same,inhibition of viral infection,SARS-CoV-2 [4],exhibit inhibition of viral infection
same,lung and liver toxicity associated to treatment,"[5]; mouse, in vivo",no lung and liver toxicity
same,tolerability upon intratracheal administration,"[5]; mouse, in vivo",well tolerated
same,lung targeting and tissue penetration,[6],significantly penetrate lung tissue
same,Mean Size (nm),[7],45.9 ± 10 nm
same,PI,[7],0.24
same,folds more potent than SBP-1-ADGN-106/ADGN-106 complex,[8],4 folds
same,folds more potent than SBP-1 coupled to ADGN-106,[8],8 folds
same,folds more potent than SBP-1 peptide/ADGN-106 complex,[8],35 folds
same,folds more potent than free SBP-1,[8],14 folds
same,IC50,[8]; SARS-CoV-2 Spike:ACE2 IC50,178 ± 14 nM
same,CC50,in vitro,510 ± 31 µM
same,viability at 0.5 µM,in vitro,94%
Ac-G*NYNYLYRLFK*-Ava-LWRALWRLWRSLWRLLWK-NH2 [Seq15],IC50,[3]; read-out: ACE2:SARS-CoV-2 Spike IC50,> 10000 nM
same,Residual Infection (%),SARS-CoV-2 [4],100%
same,Cell Viability (%),Vero E6 cells; uninfected Vero E6 cells,95%
same,Mean Size (nm),[7],37.5 ± 5 nm
same,PI,[7],0.23
same,IC50,[8]; read-out: SARS-CoV-2 Spike:ACE2 IC50,> 1000 nM
Ac-N*GVEGFNK*Ava-LWRALWRLWRSLWRLLWK-NH2 [Seq17],IC50,SARS-CoV-2 [2]; [11],31.5 ± 12 nM
same,IC50,SARS-CoV-2 [2]; [12],27.5 ± 11 nM
same,Residual Infection (%),SARS-CoV-2 [4],20%
same,inhibition of viral infection,SARS-CoV-2 [4],exhibit inhibition of viral infection
same,reduction of anti-viral activity by pre-incubation,SARS-CoV-2 [4],2 fold
same,IC50,SARS-CoV-2 [4]; read-out: D-IC50,21.5 ± 12 nM
same,IC50,"SARS-CoV-2 [4]; read-out: IC50, SARS-COV2",31.5 ± 12 nM
same,IC50,SARS-CoV-2 [4]; read-out: P-IC50,57.2 ± 12 nM
same,percentage of the cells in bronchoalveolar lavage,"[5]; 2 days after instillation, versus saline",slight increases of macrophages
same,lung and liver toxicity associated to treatment,"[5]; mouse, in vivo",no lung and liver toxicity
same,TD50,Vero E6 cells; uninfected Vero E6 cells,340 ± 28 µM
same,Cell Viability (%),Vero E6 cells; uninfected Vero E6 cells,85%
same,Mean Size (nm),[7],57 ± 4 nm
same,PI,[7],0.17
Ac-T*NGVGYQPYK*-Ava-LWRALWRLWRSLWRLLWK-NH2 [Seq22],Residual Infection (%),SARS-CoV-2 [4],40%
same,inhibition of viral infection,SARS-CoV-2 [4],exhibit inhibition of viral infection
same,reduction of virus infection,SARS-CoV-2 [4],60%
same,IC50,SARS-CoV-2 [4]; read-out: D-IC50,124 ± 14 nM
same,IC50,SARS-CoV-2 [4]; read-out: P-IC50,145 ± 25 nM
same,TD50,Vero E6 cells; uninfected Vero E6 cells,358 ± 27 µM
same,Cell Viability (%),Vero E6 cells; uninfected Vero E6 cells,87%
same,Mean Size (nm),[7],54.4 ± 8 nm
same,PI,[7],0.24
same,blocked SARS-CoV-2 Spike: ACE2 interaction,[8],blocked
same,fold less potent than Seq20/Seq21,[8],3.6 fold
CAAGTCCTATTTCTGAACATG (chemistry not given here) [DIVC-33],IC50,SARS-CoV-2 ORF 3A gene,57.2 ± 12 nM
GAACATGTTACCTTCTTCATC (chemistry not given here) [DIVC-34],IC50,SARS-CoV-2 ORF 3A gene,12.3 ± 1 nM
same,TD50 (μM),Vero-6 cells,589 + 17 μM
same,IC50,SARS-CoV-2 [9]; [13],~1000 nM
same,IC50,SARS-CoV-2 [9]; [14],1450 nM
GACAAGGCGTTCCAATTAACA (chemistry not given here) [DIVC-3],IC50,[10],11.4 ± 5 nM
same,TD50 (μM),Vero-6 cells,452 + 20 μM
same,IC50,SARS-CoV-2 [9]; [14],84 ± 14 nM
GACCCGTGTCCTATTCACTTC [DIVC-82],IC50,SARS-CoV-2 ORF 8 gene,21.7 ± 7 nM
GCCTCTTCTCGTTCCTCATCA (chemistry not given here) [DIVC-8],IC50,[10],27.3 nM
same,TD50 (μM),Vero-6 cells,548 + 25 μM
same,IC50,SARS-CoV-2 [9]; [14],117 nM
GCGTTGTTCGTTCTATGAAGA (chemistry not given here) [DIVC-84],IC50,SARS-CoV-2 ORF 8 gene,113 ± 15 nM
GGCCAAACTGTCACTAAGAAA (chemistry not given here) [DIVC-6],IC50,SARS-CoV-2 [2]; [11],68 nM
same,IC50,[10],8.7 ± 2 nM
same,TD50 (μM),Vero-6 cells,652 + 24 μM
same,IC50,SARS-CoV-2 nucleocapside,11 nM and 8.7 nM
same,fold stronger anti-SARS-CoV-2 activity than hydroxychloroquine sulfate,SARS-CoV-2 [9],64 fold
same,IC50,SARS-CoV-2 [9]; [14],68 ± 12 nM
GGTGAAATCAAGGATGCTACT [DIVC-31],IC50,SARS-CoV-2 ORF 3A gene,18.4 ± 2 nM
GTCCTATTCACTTCTATTCTA (chemistry not given here) [DIVC-85],IC50,SARS-CoV-2 ORF 8 gene,10.8 ± 2 nM
same,TD50 (μM),Vero-6 cells,248 + 35 μM
same,IC50,SARS-CoV-2 [9]; [13],~1000 nM
same,IC50,SARS-CoV-2 [9]; [14],1220 nM
GTGGATGAGGCTGGTTCTAAA [DIVC-83],IC50,SARS-CoV-2 ORF 8 gene,15.4 ± 3 nM
GTGTAACTTCTTCAATTGTCA (chemistry not given here) [DIVC-32],IC50,SARS-CoV-2 ORF 3A gene,95.1 ± 7 nM
GTTGATGACCCGTGTCCTATT (chemistry not given here) [DIVC-81],IC50,SARS-CoV-2 ORF 8 gene,> 200 nM
"KWRSAGWRWRLWRVRSWSR [ADGN-100, reference compound]",TD50 (μM),Vero-6 cells,368 + 18 μM
TGCAGAGTATAAACTTTGTAA (chemistry not given here) [DIVC-35],IC50,SARS-CoV-2 ORF 3A gene,125 ± 11 nM
